Measurements published in patent US4732970A, “Antitumor amino acid and peptide derivatives of 1,4-bis(aminoalkyl and hydroxy-aminoalkyl)amino)-5,8-dihydroxyanthraquinones” (priority 1986, dated 1988).
Read-outs that look alike come from different tables or passages of the source.

Test system: lymphocytic leukemia P388
Experiment: Lymphocytic Leukemia P388 Test
Assay type: in vivo, BDF1 mice
Conditions: for Median Survival: BDF1 mice; for response vs control in vivo at 0.75 mg/kg / response vs control in vivo at 1.5 mg/kg / response vs control in vivo at 3 mg/kg: Mus musculus, P388, ip
Experimental: The animals used were BDF1 mice, all of one sex, weighing a minimum of 18 g and all within a 3 g weight range. There were 5 or 6 mice per test group. The tumor transplant was by intraperitoneal injection of 0.5 ml of dilute ascitic fluid containing 10^6 cells of lymphocytic leukemia P388. The test compounds were administered intraperitoneally on days 1, 5 and 9 (relative to tumor inocu-lation) at various doses. The animals were weighed and survivors recorded on a regular basis for 60 days. The median survival time and the ratio of survival time for treated (T)/control (C) animals were calculated.

[1] = dose 0.75 mg/kg intraperitoneally on days 1, 5 and 9
[2] = dose 0.75 mg/kg intraperitoneally on days 1, 5 and 9, ratio of survival time treated/control
[3] = dose 1.5 mg/kg intraperitoneally on days 1, 5 and 9
[4] = dose 1.5 mg/kg intraperitoneally on days 1, 5 and 9, ratio of survival time treated/control
[5] = dose 3 mg/kg intraperitoneally on days 1, 5 and 9
[6] = dose 3 mg/kg intraperitoneally on days 1, 5 and 9, ratio of survival time treated/control

SMILES	Median Survival [1]	T/C × 100 (%) [2]	Median Survival [3]	T/C × 100 (%) [4]	Median Survival [5]	T/C × 100 (%) [6]	response vs control in vivo at 0.75 mg/kg (read-out: T/C × 100 (%))	response vs control in vivo at 1.5 mg/kg (read-out: T/C × 100 (%))	response vs control in vivo at 3 mg/kg (read-out: T/C × 100 (%))	response vs control in vivo at 0.75 mg/kg (dose 0.75 mg/kg intraperitoneally on days 1, 5 and 9, ratio of survival time treated/control, read-out: T/C × 100 (%))	response vs control in vivo at 1.5 mg/kg (dose 1.5 mg/kg intraperitoneally on days 1, 5 and 9, ratio of survival time treated/control, read-out: T/C × 100 (%))	response vs control in vivo at 3 mg/kg (dose 3 mg/kg intraperitoneally on days 1, 5 and 9, ratio of survival time treated/control, read-out: T/C × 100 (%))	response vs control in vivo at 0.75 mg/kg (read-out: T/C × 100 (%), dose 0.75 mg/kg intraperitoneally on days 1, 5 and 9, ratio of survival time treated/control)	response vs control in vivo at 1.5 mg/kg (read-out: T/C × 100 (%), dose 1.5 mg/kg intraperitoneally on days 1, 5 and 9, ratio of survival time treated/control)	response vs control in vivo at 3 mg/kg (read-out: T/C × 100 (%), dose 3 mg/kg intraperitoneally on days 1, 5 and 9, ratio of survival time treated/control)
Br.Br.CC(C)C[C@H](N)C(=O)NCCNc1ccc(NCCNC(=O)[C@@H](N)CC(C)C)c2c1C(=O)c1c(O)ccc(O)c1C2=O (stereo in doubt) [Example 31, [S-(R*,R*)]-N,N'-[(9,10-Dihydro-5,8-dihydroxy-9,10-dioxo-1,4-anthracenediyl)bis(imino-2,1-ethanediyl)]bis[2-amino-4-methylpentanamide], dihydrobromide]	17.5 days	175%	18.0 days	180%	21.0 days	210%	–	–	–	–	–	–	–	–	–
C[C@H](NC(=O)OC(C)(C)C)C(=O)N[C@@H](C)C(=O)N(CCNc1ccc(NCCN(C(=O)[C@H](C)NC(=O)[C@H](C)NC(=O)OC(C)(C)C)[C@@H](C)C(=O)O)c2c1C(=O)c1c(O)ccc(O)c1C2=O)[C@@H](C)C(=O)O [Example 7., N,N'-[(9,10-Dihydro-5,8-dihydroxy-9,10-dioxo-1,4-anthracenediyl)bis(imino-2,1-ethanediyl)]bis[N-[(1,1-dimethylethoxy)carbonyl]-L-alanyl-L-alanyl-L-alanine]]	18.5 days	–	18.0 days	–	19.0 days	–	176%	171%	181%	–	–	–	–	–	–
CC(C)CC(N)C(=O)N(CCO)CCNc1ccc(NCCN(CCO)C(=O)C(N)CC(C)C)c2c1C(=O)c1c(O)ccc(O)c1C2=O.Cl.Cl (stereo not drawn) [Example 28, N,N'-[(9,10-Dihydro-5,8-dihydroxy-9,10-dioxo-1,4-anthracenediyl)bis(imino-2,1-ethanediyl)]bis[2-amino-N-(2-hydroxyethyl)-4-methylpentanamide], dihydrochloride]	12.0 days	–	14.0 days	–	17.0 days	–	–	–	–	109%	127%	155%	–	–	–
Br.Br.CC(C)C[C@H](N)C(=O)N[C@@H](C)C(=O)NCCNc1ccc(NCCNC(=O)[C@H](C)NC(=O)[C@@H](N)CC(C)C)c2c1C(=O)c1c(O)ccc(O)c1C2=O [Example 50, N,N'-[(9,10-Dihydro-5,8-dihydroxy-9,10-dioxo-1,4-anthracenediyl)bis(imino-2,1-ethanediyl)]bis[L-leucyl-L-alaninamide], dihydrobromide]	17.0 days	–	20.0 days	–	20.0 days	–	–	–	–	–	–	–	170%	200%	200%
CC(C)C[C@H](NC(=O)OCc1ccccc1)C(=O)N[C@@H](C)C(=O)N[C@@H](CC(C)C)C(=O)NCCNc1ccc(NCCNC(=O)[C@H](CC(C)C)NC(=O)[C@H](C)NC(=O)[C@H](CC(C)C)NC(=O)OCc2ccccc2)c2c1C(=O)c1c(O)ccc(O)c1C2=O [Example 51]	20.0 days	182%	19.0 days	173%	17.0 days	155%	–	–	–	–	–	–	–	–	–
Br.Br.CC(C)C[C@H](NC(=O)[C@H](C)NC(=O)[C@@H](N)CC(C)C)C(=O)NCCNc1ccc(NCCNC(=O)[C@H](CC(C)C)NC(=O)[C@H](C)NC(=O)[C@@H](N)CC(C)C)c2c1C(=O)c1c(O)ccc(O)c1C2=O [Example 52, N,N'-[(9,10-Dihydro-5,8-dihydroxy-9,10-dioxo-1,4-anthracenediyl)bis(imino-2,1-ethanediyl)]bis[L-leucyl-L-Alanyl-L-leucinamide]dihydrobromide]	20.5 days	205%	25.5 days	255%	25.0 days	250%	–	–	–	–	–	–	–	–	–
O=C(CNC(=O)OCc1ccccc1)N[C@@H](Cc1ccccc1)C(=O)NCCNc1ccc(NCCNC(=O)[C@H](Cc2ccccc2)NC(=O)CNC(=O)OCc2ccccc2)c2c1C(=O)c1c(O)ccc(O)c1C2=O [Example 53]	18.5 days	168%	17.5 days	159%	19.0 days	173%	–	–	–	–	–	–	–	–	–
C[C@H](NC(=O)OCc1ccccc1)C(=O)NCC(=O)NCCNc1ccc(NCCNC(=O)CNC(=O)[C@H](C)NC(=O)OCc2ccccc2)c2c1C(=O)c1c(O)ccc(O)c1C2=O [Example 55]	12.5 days	114%	13.0 days	118%	19.0 days	173%	–	–	–	–	–	–	–	–	–
Br.Br.C[C@H](N)C(=O)NCC(=O)NCCNc1ccc(NCCNC(=O)CNC(=O)[C@H](C)N)c2c1C(=O)c1c(O)ccc(O)c1C2=O [Example 56, N,N'-[(9,10-Dihydro-5,8-dihydroxy-9,10-dioxo-1,4-anthracenediyl)bis(imino-2,1-ethanediyl)]bis[L-alanyl-glycinamine]dihydrobromide]	21.0 days	191%	28.0 days	255%	32.5 days	295%	–	–	–	–	–	–	–	–	–
O=C(CNC(=O)CNC(=O)OCc1ccccc1)NCCNc1ccc(NCCNC(=O)CNC(=O)CNC(=O)OCc2ccccc2)c2c1C(=O)c1c(O)ccc(O)c1C2=O [Example 57, N,N'-[(9,10-Dihydro-5,8-dihydroxy-9,10-dioxo-1,4-anthracenediyl)bis(imino-2,1-ethanediyl)]bis[N-[(phenylmethoxy)carbonyl]glycyl]glycinamide]	12.0 days	109%	14.0 days	127%	15.0 days	136%	–	–	–	–	–	–	–	–	–
Br.Br.NCC(=O)NCC(=O)NCCNc1ccc(NCCNC(=O)CNC(=O)CN)c2c1C(=O)c1c(O)ccc(O)c1C2=O [Example 58, N,N'-[(9,10-Dihydro-5,8-dihydroxy-9,10-dioxo-1,4-anthracenediyl)bis(imino-2,1-ethanediyl)]bis[glycyl-glycinamide]dihydrobromide]	22.0 days	200%	21.5 days	195%	24.0 days	218%	–	–	–	–	–	–	–	–	–
CC(C)(C)OC(=O)NCC(=O)NCC(=O)NCC(=O)NCCNc1ccc(NCCNC(=O)CNC(=O)CNC(=O)CNC(=O)OC(C)(C)C)c2c1C(=O)c1c(O)ccc(O)c1C2=O [Example 59, N,N'-[(9,10-Dihydro-5,8-dihydroxy-9,10-dioxo-1,4-anthracenediyl)bis(imino-2,1-ethanediyl)]bis[N-[(1,1-dimethylethoxy)carbonyl]glycylglycyl]glycinamide]	15.0 days	136%	15.5 days	141%	18.0 days	164%	–	–	–	–	–	–	–	–	–
NCC(=O)NCC(=O)NCC(=O)NCCNc1ccc(NCCNC(=O)CNC(=O)CNC(=O)CN)c2c1C(=O)c1c(O)ccc(O)c1C2=O.O=C(O)C(F)(F)F.O=C(O)C(F)(F)F [Example 60, N,N'-[(9,10-Dihydro-5,8-dihydroxy-9,10-dioxo-1,4-anthracenediyl)bis(imino-2,1-ethanediyl)]bis[glycylglycylglycinamide]bis(trifluoroacetate)]	19.5 days	177%	23.0 days	209%	22.0 days	200%	–	–	–	–	–	–	–	–	–
Br.Br.CC(C)C[C@H](NC(=O)[C@@H]1CCCN1C(=O)CN)C(=O)NCC(=O)N1CCC[C@H]1C(=O)NCCNc1ccc(NCCNC(=O)[C@@H]2CCCN2C(=O)CNC(=O)[C@H](CC(C)C)NC(=O)[C@@H]2CCCN2C(=O)CN)c2c1C(=O)c1c(O)ccc(O)c1C2=O [Example 62, N,N'-[(9,10-Dihydro-5,8-dihydroxy-9,10-dioxo-1,4-anthracenediyl)bis(imino-2,1-ethanediyl)]bis[glycyl-L-prolyl-L-leucylglycyl-L-prolinamide]dihydrobromide]	19.0 days	190%	22.0 days	220%	24.5 days	245%	–	–	–	–	–	–	–	–	–
